{
  "source": "patent US20060281806A1",
  "about": "“Treatment and inhibition of disease conditions using flexible heteroarotinoids” (priority 2005, published 2006)",
  "assay_type_in_all_cases": "cell-based",
  "key": {"[1]": {"system": "NCI human tumor cell line panel", "assay": "SHetA2 cytotoxicity in NCI human tumor cell line panel", "conditions": "48 h", "method": "The SHetA2 compound was evaluated in the National Cancer Institute (NCI) human tumor cell line panel by the Developmental Therapeutics Program (DTP). The human tumor cell lines were grown in RPMI 1640 medium containing 5% fetal bovine serum and 2 mM L-glutamine. Cells were inoculated into 96 well microtiter plates at densities ranging from 5,000 to 40,000 cells/well depending on the doubling time of individual cell lines and incubated for 24 h prior to addition of SHetA2. After 24 h, two plates of each cell line were fixed in situ with TCA, to represent a measurement of the cell population for each cell line at the time of drug addition (Tz). Drugs were dissolved in dimethyl sulfoxide (DMSO) and diluted in complete medium containing 50 μg/ml gentamicin, prior to addition to the culture wells. […] […] The absorbance was read on an automated plate reader at a wavelength of 515 nm. Using the seven absorbance measurements (time zero, (Tz), control growth, (C), and test growth in the presence of drug at the five concentration levels (Ti)), the GI50 was calculated from [(Ti−Tz)/(C−Tz)]×100=50. […]"}, "[2]": {"system": "EAhy.926 endothelial cells", "assay": "Endothelial tube branching on matrigel", "conditions": "various concentrations (1, 5, 10 μM); scored after twenty hours", "source_text": "The graph on the left provides quantification of the endothelial branches for each treatment dose."}, "[3]": {"system": "Thymidine Phosphorylase (TP)", "assay": "Real time rt-PCR and Western blot validation, TP", "conditions": "1 μM (rt-PCR, OVCAR-3) and 10 μM (Western blot, A2780)", "method": "FIG. 13. Real Time rt-PCR validation of SHetA2 inhibition of TP and TSP-1 mRNA Expression. OVCAR-3 cultures were treated with 1 μM SHetA2 for the indicated period of time prior to harvesting the cells and isolating RNA. cDNA was prepared and used in real time rt-PCR reactions. Real time rt-PCR was performed on CDNA from cultures various treatment times.\nFIG. 14. Western blot validation of SHetA2 inhibition of TP and TSP4 protein expression. A2780 ovarian cancer cells were treated with 10 μM SHetA2 for the indicated amounts of time. Equal amounts of whole cell protein extracts were evaluated by Western blot."}},
  "data": [
    {"smiles": "CC1(C)CC(C)(C)c2cc(NC(=S)Nc3ccc([N+](=O)[O-])cc3)ccc2S1", "note": "[SHetA2]", "values": [
      {"measurement": "percent growth", "setting": "[1]; 10 and 100 μM SHetA2, majority of cell lines", "value": "negative percent growth levels"},
      {"measurement": "GI50 values", "setting": "[1]; 55 cell lines representing 9 cancer types", "value": "micromolar range"},
      {"measurement": "endothelial tube branching (in vitro angiogenesis)", "setting": "[2]", "value": "dose-responsive inhibition of angiogenesis"},
      {"measurement": "expression of TP at the RNA and protein levels", "setting": "[3]", "value": "inhibit expression"}
    ]}
  ]
}
